Reference: patent publication US20060252744A1 (priority 2005, published 2006)
Where two headings read alike, the source gives them in different places.

Experiments:
human D2 receptors = target: T1, human D2 receptors (Homo sapiens, UniProt P14416); experiment: competitive radioligand D2 binding assay, (Methoxy-3H)-raclopride, membranes of transfected HEK-293T cells; settings: mean of one or two experiments; butaclamol as control
T1 construct: expressed in transfected cells; host or cells: HEK-293T

[1] = target: human D2 dopamine receptor (Homo sapiens, UniProt P14416); experiment: R-SAT functional receptor assay, D2 receptor co-expressed with Gαo; settings: for Emax: read-out: % basal response (D2 intrinsic activity); for activity at 1 µM: read-out: D2 basal (basal response, no drug = 100%)
[2] = target: human D3 dopamine receptor (Homo sapiens, UniProt P35462); experiment: R-SAT functional receptor assay, D3 receptor co-expressed with Gαo; settings: for activity at 1 µM: read-out: D3 basal (basal response, no drug = 100%)
[3] = steady state kinetics in humans given clozapine; cited from earlier work
[4] = compounds at 1 μM, mean +/− standard error, R-SAT

T1 sequence (P14416 whole entry): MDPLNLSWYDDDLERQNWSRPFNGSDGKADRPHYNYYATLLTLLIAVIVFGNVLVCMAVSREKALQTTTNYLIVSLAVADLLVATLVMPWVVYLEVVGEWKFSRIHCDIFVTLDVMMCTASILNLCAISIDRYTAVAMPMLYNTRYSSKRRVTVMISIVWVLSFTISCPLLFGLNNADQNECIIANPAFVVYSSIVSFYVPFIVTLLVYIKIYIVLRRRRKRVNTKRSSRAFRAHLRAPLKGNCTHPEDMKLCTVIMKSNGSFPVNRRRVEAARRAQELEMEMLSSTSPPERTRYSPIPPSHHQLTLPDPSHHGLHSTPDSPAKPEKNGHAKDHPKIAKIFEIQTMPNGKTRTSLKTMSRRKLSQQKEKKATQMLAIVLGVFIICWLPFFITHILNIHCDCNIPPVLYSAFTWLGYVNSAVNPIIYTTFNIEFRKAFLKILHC
Chain of human D2 dopamine receptor (P14416 whole entry): as above
Chain of human D3 dopamine receptor (P35462 whole entry): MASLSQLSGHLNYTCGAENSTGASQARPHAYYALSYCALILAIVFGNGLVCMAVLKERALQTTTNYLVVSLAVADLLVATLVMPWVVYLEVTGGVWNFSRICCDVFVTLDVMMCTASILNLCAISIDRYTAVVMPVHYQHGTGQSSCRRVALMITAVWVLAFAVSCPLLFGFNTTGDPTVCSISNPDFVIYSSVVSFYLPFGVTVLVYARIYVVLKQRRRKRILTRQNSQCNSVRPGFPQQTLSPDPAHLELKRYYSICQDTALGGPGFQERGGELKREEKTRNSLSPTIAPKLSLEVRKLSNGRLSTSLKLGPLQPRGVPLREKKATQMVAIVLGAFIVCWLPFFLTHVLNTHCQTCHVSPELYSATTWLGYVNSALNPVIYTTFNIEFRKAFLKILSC

| SMILES | Ki (human D2 receptors) | Emax [1] | activity at 1 µM [1] | activity at 1 µM [2] | other results |
| --- | --- | --- | --- | --- | --- |
| Fc1ccc2c(c1)N=C(N1CCNCC1)c1ccccc1O2 | 501 nM | 207% |  |  |  |
| N#Cc1ccc2c(c1)N=C(N1CCNCC1)c1ccccc1N2 | 5010 nM | 201% |  |  |  |
| Clc1ccc2c(c1)N=C(N1CCCNCC1)c1ccccc1N2 | 2000 nM | 172% |  |  |  |
| Fc1ccc2c(c1)N=C(N1CCNCC1)c1ccccc1N2 | 2510 nM | 170% |  |  |  |
| Brc1ccc2c(c1)N=C(N1CCNCC1)c1ccccc1O2 | 126 nM | 155% |  |  |  |
| Clc1ccc2c(c1)N=C(N1CCNCC1)c1ccccc1O2 | 251 nM | 150% |  |  |  |
| Brc1ccc2c(c1)N=C(N1CCNCC1)c1ccccc1N2 | 158 nM | 147% |  |  |  |
| Brc1ccc2c(c1)N=C(N1CCNCC1)CCN2 |  | 142% |  |  |  |
| CN1c2ccc(Cl)cc2N=C(N2CCNCC2)c2ccccc21 | 794 nM | 141% |  |  |  |
| Cc1cccc2c1Oc1ccc(F)cc1N=C2N1CCNCC1 | 316 nM | 126% |  |  |  |
| Cc1cccc2c1Oc1ccc(C(F)(F)F)cc1N=C2N1CCNCC1 | 2510 nM | 118% |  |  |  |
| Clc1ccc2c(c1)N=C(N1CC3CC1CN3)c1ccccc1N2 (stereo not shown) | 2510 nM | 116% |  |  |  |
| Cc1cccc2c1Oc1ccc(Br)cc1N=C2N1CCNCC1 | 794 nM | 112% |  |  |  |
| Cc1cccc2c1Oc1ccc(Cl)cc1N=C2N1CCNCC1 | 316 nM | 106% |  |  |  |
| Clc1ccc2c(c1)N=C(NC[C@@H]1CCCN1)c1ccccc1N2 | 1580 nM | 105% |  |  |  |
| Cc1cccc2c1Nc1ccc(Cl)cc1N=C2N1CCNCC1 | 6310 nM | 102% |  |  |  |
| Clc1ccc2c(c1)N=C(N1CCNCC1)c1ccccc1C2 | 12.6 nM | 260% |  |  |  |
| CCN1CCC[C@H]1CNC(=O)c1c(O)c(Cl)cc(Cl)c1OC (racemic) [S(−)-raclopride] |  |  |  |  | D2 basal (basal response, no drug = 100%) [1, 4]: 60− %; D3 basal (basal response, no drug = 100%) [2, 4]: 56− % |
| OCCN1CCN([C@@H]2C[C@@H](c3ccc(F)cc3)c3ccc(C(F)(F)F)cc32)CC1 (racemic) [tefludazine] |  |  | 67% | 47% |  |
| Clc1ccc2c(c1)N=C(N1CCNCC1)c1ccccc1N2 [N-desmethylclozapine, 8-chloro-11-(1-piperazinyl)-5H-dibenzo[b,e][1,4]diazepine] |  |  |  | 188% | share of NDMC in total serum clozapine concentrations [3]: 40-75%; EC50 [1]: 31.6 nM; intrinsic activity at D2 receptor (in words) ([1]; R-SAT): partial agonist; relative efficacy to pergolide at D2 ([1]; R-SAT): 34%; D2 basal (basal response, no drug = 100%) [1, 4]: 229 +/− 21%; EC50 [2]: 100 nM; intrinsic activity at D3 receptor (in words) ([2]; R-SAT): partial agonist; relative efficacy to pergolide at D3 ([2]; R-SAT): 40% |
| O=C(CCCN1CCC(O)(c2ccc(Br)cc2)CC1)c1ccc(F)cc1 [bromperidol] |  |  | 46% | 43% |  |
| CC(C)(C)[C@]1(O)CCN2C[C@H]3c4ccccc4CCc4cccc(c43)[C@@H]2C1 [butaclamol] |  |  |  |  | D2 basal (basal response, no drug = 100%) [1, 4]: 60 +/− 2% |
| CCN(CC)CCCN1c2ccccc2Sc2ccc(Cl)cc21 [chlorproethazine] |  |  |  |  | D2 basal (basal response, no drug = 100%) [1, 4]: 60 +/− 7%; D3 basal (basal response, no drug = 100%) [2, 4]: 63 +/− 10% |
| OCCN1CCN(CC/C=C2/c3ccccc3Sc3ccc(C(F)(F)F)cc32)CC1 [cis-flupenthixol] |  |  |  |  | D2 basal (basal response, no drug = 100%) [1]: 59 +/− 4% |

| SMILES | Ki (human D2 receptors) | Emax [1] | activity at 1 µM [1] | activity at 1 µM [2] | other results |
| --- | --- | --- | --- | --- | --- |
| OCCN1CCN(CCCN2c3ccccc3Sc3ccc(C(F)(F)F)cc32)CC1 [fluphenazine] |  |  | 61% | 55% |  |
| O=C1NCN(c2ccccc2)C12CCN(CCCC(c1ccc(F)cc1)c1ccc(F)cc1)CC2 [fluspirilene] |  |  | 52% | 45% |  |
| CC1CCN(CCCC(=O)c2ccc(F)cc2)CC1 [melperone] |  |  | 76% | 75% |  |
| CCc1c(C)[nH]c2c1C(=O)C(CN1CCOCC1)CC2 (stereo not shown) [molindone] |  |  | 70% | 65% |  |
| Cc1ccc(C2(O)CCN(CCCC(=O)c3ccc(F)cc3)CC2)cc1 [moperone] |  |  | 64% | 52% |  |
| Cc1nc2c(C)cccn2c(=O)c1CCN1CCC(c2noc3cc(F)ccc23)CC1 [ocaperiodone] |  |  |  |  | D2 basal (basal response, no drug = 100%) [1, 4]: 62 +/− 8%; D3 basal (basal response, no drug = 100%) [2, 4]: 51 +/− 10% |
| CN1CCN(C2Cc3ccccc3Sc3ccc(Cl)cc32)CC1.O=C(O)/C=C\C(=O)O (stereo not shown) [octoclothepin] |  |  |  |  | D3 basal (basal response, no drug = 100%) [2]: 60 +/− 8% |
| Cc1cc2c(s1)Nc1ccccc1N=C2N1CCN(C)CC1 [olanzapine] |  |  |  |  | D2 basal (basal response, no drug = 100%) [1]: 83 +/− 6%; D3 basal (basal response, no drug = 100%) [2, 4]: 83 +/− 6% |
| CN1CCN(C2=Nc3ccccc3Cc3ccccc32)CC1 [perlapine] |  |  | 58% | 74% |  |
| O=c1[nH]c2ccccc2n1C1CCN(CCCC(c2ccc(F)cc2)c2ccc(F)cc2)CC1 [pimozide] |  |  | 43% | 54% |  |
| CN1CCN(CCCN2c3ccccc3Sc3ccc(Cl)cc32)CC1 [prochlorperazine] |  |  | 57% | 53% |  |
| CN(C)CCCN1c2ccccc2Sc2ccccc21 [promazine] |  |  | 76% | 83% |  |
| Cc1nc2n(c(=O)c1CCN1CCC(c3noc4cc(F)ccc34)CC1)CCCC2 [risperidone] |  |  |  |  | D2 basal (basal response, no drug = 100%) [1]: 63 +/− 2% |
| O=C1NCCN1CCN1CCC(c2cn(-c3ccc(F)cc3)c3ccc(Cl)cc23)CC1 [sertindole] |  |  | 61% |  |  |
| O=C(CCCN1CCC2(CC1)C(=O)NCN2c1ccccc1)c1ccc(F)cc1 [spiperone] |  |  |  |  | D2 basal (basal response, no drug = 100%) [1]: 51 +/− 1% |
| CCN1CCCC1CNC(=O)c1cc(S(N)(=O)=O)ccc1OC (stereo not shown) [sulpiride] |  |  | 59% |  | D3 basal (basal response, no drug = 100%) [2, 4]: 55 +/− 9% |
| CSc1ccc2c(c1)N(CCC1CCCCN1C)c1ccccc1S2 (stereo not shown) [thioridazine] |  |  | 81% | 81% |  |
| CN1CCN(CC/C=C2/c3ccccc3Sc3ccc(S(=O)(=O)N(C)C)cc32)CC1 [thiothixene] |  |  | 73% | 68% |  |
| CCN(CC)CCNC(=O)c1cc(S(C)(=O)=O)ccc1OC [tiapride] |  |  | 65% | 57% |  |
| OCCN1CCN(CC/C=C2\c3ccccc3Sc3ccc(C(F)(F)F)cc32)CC1 [trans-(e)-flupenthixol] |  |  |  |  | D2 basal (basal response, no drug = 100%) [1]: 68 +/− 4% |
| CN1CCN(CCCN2c3ccccc3Sc3ccc(C(F)(F)F)cc32)CC1 [trifluoperazine] |  |  | 58% |  |  |
| O=C(CCCN1CCC(O)(c2cccc(C(F)(F)F)c2)CC1)c1ccc(F)cc1 [trifluperidol] |  |  | 58% | 54% |  |
| O=C1Cc2cc(CCN3CCN(c4nsc5ccccc45)CC3)c(Cl)cc2N1 [ziprasidone] |  |  |  |  | D2 basal (basal response, no drug = 100%) [1, 4]: 66 +/− 8% |
